One assay has as its target T1, Progesterone receptor (Homo sapiens, UniProt P06401).
T1 sequence (P06401 whole entry): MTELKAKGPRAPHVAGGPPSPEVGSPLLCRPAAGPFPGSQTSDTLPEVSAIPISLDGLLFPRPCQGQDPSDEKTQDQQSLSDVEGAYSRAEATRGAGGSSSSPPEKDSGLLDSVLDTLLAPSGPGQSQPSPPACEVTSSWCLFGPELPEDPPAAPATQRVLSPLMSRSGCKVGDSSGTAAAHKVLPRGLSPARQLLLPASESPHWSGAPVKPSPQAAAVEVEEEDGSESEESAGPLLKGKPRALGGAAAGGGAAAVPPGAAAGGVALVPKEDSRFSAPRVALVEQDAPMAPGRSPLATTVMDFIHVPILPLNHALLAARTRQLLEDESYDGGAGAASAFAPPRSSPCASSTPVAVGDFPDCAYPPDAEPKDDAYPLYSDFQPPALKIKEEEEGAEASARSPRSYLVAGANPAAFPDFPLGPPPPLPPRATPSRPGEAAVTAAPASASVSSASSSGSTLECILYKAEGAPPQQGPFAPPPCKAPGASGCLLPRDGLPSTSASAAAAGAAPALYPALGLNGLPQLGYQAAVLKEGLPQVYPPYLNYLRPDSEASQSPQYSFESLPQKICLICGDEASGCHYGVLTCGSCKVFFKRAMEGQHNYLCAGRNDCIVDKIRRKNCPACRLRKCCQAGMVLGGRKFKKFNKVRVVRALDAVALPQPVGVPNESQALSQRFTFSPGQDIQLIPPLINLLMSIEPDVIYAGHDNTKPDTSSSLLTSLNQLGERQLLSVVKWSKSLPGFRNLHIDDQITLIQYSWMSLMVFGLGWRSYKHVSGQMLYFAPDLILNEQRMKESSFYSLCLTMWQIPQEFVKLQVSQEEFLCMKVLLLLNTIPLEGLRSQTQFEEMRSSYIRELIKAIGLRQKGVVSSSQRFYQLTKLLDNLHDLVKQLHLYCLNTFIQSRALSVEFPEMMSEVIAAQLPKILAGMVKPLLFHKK

For assay [1], the target named is T2, Androgen receptor (Homo sapiens, UniProt P10275).
T2 sequence (P10275 whole entry): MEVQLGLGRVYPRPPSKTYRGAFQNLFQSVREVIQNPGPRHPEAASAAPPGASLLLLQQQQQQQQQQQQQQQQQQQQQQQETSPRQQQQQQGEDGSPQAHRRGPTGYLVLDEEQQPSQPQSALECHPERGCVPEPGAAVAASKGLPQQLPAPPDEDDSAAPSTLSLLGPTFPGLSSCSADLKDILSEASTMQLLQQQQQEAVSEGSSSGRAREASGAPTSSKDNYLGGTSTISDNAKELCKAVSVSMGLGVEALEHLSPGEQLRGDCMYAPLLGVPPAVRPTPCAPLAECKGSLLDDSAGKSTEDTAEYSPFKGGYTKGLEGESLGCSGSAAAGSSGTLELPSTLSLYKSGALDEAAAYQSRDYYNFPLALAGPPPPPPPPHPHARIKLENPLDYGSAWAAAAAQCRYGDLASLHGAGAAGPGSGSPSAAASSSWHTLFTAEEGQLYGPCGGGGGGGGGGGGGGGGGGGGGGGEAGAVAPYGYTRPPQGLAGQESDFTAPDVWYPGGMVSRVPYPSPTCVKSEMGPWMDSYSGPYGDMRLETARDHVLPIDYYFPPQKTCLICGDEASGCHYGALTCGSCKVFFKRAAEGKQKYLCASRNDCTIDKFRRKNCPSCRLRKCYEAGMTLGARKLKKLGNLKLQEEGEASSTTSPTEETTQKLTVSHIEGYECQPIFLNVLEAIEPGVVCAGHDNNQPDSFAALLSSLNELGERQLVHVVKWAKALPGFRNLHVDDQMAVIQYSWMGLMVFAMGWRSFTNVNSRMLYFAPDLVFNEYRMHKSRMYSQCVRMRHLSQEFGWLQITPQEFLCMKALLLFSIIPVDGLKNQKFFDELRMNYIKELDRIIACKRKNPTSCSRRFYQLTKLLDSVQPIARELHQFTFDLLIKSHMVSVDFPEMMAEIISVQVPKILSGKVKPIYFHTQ
Description: Inhibitory activity against human Androgen receptor

The target of another assay is Estrogen receptor (Homo sapiens, UniProt Q92731+P03372).
The target of assay [2] is T2, Androgen receptor. This is another data set of the same source.
Description: Binding affinity determined against human Androgen receptor

Usually IC50 stands for the concentration at which inhibition is half-maximal. Read a low IC50 as inhibition by little substance. In general, Ki refers to the dissociation constant of the complex between target and ligand, obtained from inhibition or displacement.

Description for Estrogen receptor: Inhibitory activity against human estrogen receptor

In the case of `C=C1C=C(C)CC(C)(C)C1Cc1ccc([N+](=O)[O-])cc1` (centres undefined), the IC50 against Progesterone receptor was 186 nM; against Androgen receptor [1], 250 nM; against Estrogen receptor it was more than 10 µM. The compound also yielded a Ki at Androgen receptor [2] of 6.3 µM.
